The record followed here is article PMC3256143, “Blue News Update: BODIPY-GTP Binds to the Blue-Light Receptor YtvA While GTP Does Not” (PLoS ONE, 2012).

The target of assay [1] is T1, YtvA (Bacillus subtilis, UniProt O34627, M1G).
T1 construct: gene pfyP; full-length YtvA and isolated STAS domain (amino acids 148–261)
T1 sequence (O34627 1-261 M1G): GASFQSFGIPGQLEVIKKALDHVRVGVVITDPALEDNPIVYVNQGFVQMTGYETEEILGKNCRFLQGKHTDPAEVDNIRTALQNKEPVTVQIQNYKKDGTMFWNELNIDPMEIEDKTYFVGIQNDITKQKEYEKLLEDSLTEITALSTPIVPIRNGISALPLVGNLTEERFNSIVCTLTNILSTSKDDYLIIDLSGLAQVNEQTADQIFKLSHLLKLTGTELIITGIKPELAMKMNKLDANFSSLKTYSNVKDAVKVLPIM
The assay is described as follows: fluorescence enhancement on adding protein ([…] YtvA, […] dye). It counts as binding.

The target of assay [2] is T2, YtvA (Bacillus subtilis, UniProt O34627, M1G).
T2 construct: gene pfyP; full-length YtvA (Met1 replaced by Gly)
The assay is described as follows: ITC; also 1H-15N TROSY/HSQC, STD and WaterLOGSY NMR, fluorescence. It counts as binding.

Turning to `COC(=O)COc1ccc(-c2ccc3n2[B-](F)(F)[N+]2=C(c4cccs4)C=CC2=C3)cc1` [BODIPY methyl ester], the “fluorescence enhancement on adding protein (12 μM YtvA, 2.2 μM dye)” value in assay [1] is “This suggests that only the fluorophore is binding to the protein but the GTP part does not”.
In assay [2], `Nc1nc2c(ncn2[C@@H]2O[C@H](COP(=O)(O)OP(=O)(O)OP(=O)(O)O)[C@@H](O)[C@H]2OC(=O)NCCNC(=O)COc2ccc(C3=[N+]4C(=Cc5ccc(-c6cccs6)n5[B-]4(F)F)C=C3)cc2)c(=O)[nH]1` [BODIPY-GTP] registered a Kd of 2500 nM.
